Laboratory results reported in ChEMBL document CHEMBL1671673, “In vitro activity of colistin (polymyxin E) against 3,480 isolates of gram-negative bacilli obtained from patients in Canadian hospitals in the CANWARD study, 2007-2008” (Antimicrob Agents Chemother, 2009).

Legend:
Assay type in all cases: functional, organism-based
Set-up in all cases: scale not given: the % may be the effect or the level left
Acinetobacter baumannii = test: Antibacterial activity against Acinetobacter baumannii assessed as susceptible isolates at minimum inhibitory concentration of 0.5 ug/ml by CLSI broth microdilution method
Pseudomonas aeruginosa [1] = test: Antibacterial activity against MDR Pseudomonas aeruginosa assessed as susceptible isolates at minimum inhibitory concentration of 0.5 ug/ml by CLSI broth microdilution method
Pseudomonas aeruginosa [2] = test: Antibacterial activity against Levofloxacin-resistant Pseudomonas aeruginosa assessed as susceptible isolates at minimum inhibitory concentration of 4 ug/ml by CLSI broth microdilution method
Pseudomonas aeruginosa [3] = test: Antibacterial activity against Pseudomonas aeruginosa assessed as susceptible isolates at minimum inhibitory concentration of 4 ug/ml by CLSI broth microdilution method
Proteus mirabilis [4] = test: Antibacterial activity against Proteus mirabilis assessed as susceptible isolates at minimum inhibitory concentration of 1 ug/ml by CLSI broth microdilution method
Pseudomonas aeruginosa [5] = test: Antibacterial activity against Levofloxacin-resistant Pseudomonas aeruginosa assessed as susceptible isolates at minimum inhibitory concentration of 16 ug/ml by CLSI broth microdilution method
Klebsiella oxytoca [6] = test: Antibacterial activity against Klebsiella oxytoca assessed as susceptible isolates at minimum inhibitory concentration of 4 ug/ml by CLSI broth microdilution method
Enterobacter cloacae [7] = test: Antibacterial activity against Enterobacter cloacae assessed as susceptible isolates at minimum inhibitory concentration of 0.25 ug/ml by CLSI broth microdilution method
Pseudomonas aeruginosa [8] = test: Antibacterial activity against Amikacin-resistant Pseudomonas aeruginosa assessed as susceptible isolates at minimum inhibitory concentration of 8 ug/ml by CLSI broth microdilution method
Pseudomonas aeruginosa [9] = test: Antibacterial activity against Levofloxacin-resistant Pseudomonas aeruginosa assessed as susceptible isolates at minimum inhibitory concentration of 8 ug/ml by CLSI broth microdilution method
Enterobacter cloacae [10] = test: Antibacterial activity against Enterobacter cloacae assessed as susceptible isolates at minimum inhibitory concentration of 16 ug/ml by CLSI broth microdilution method
Pseudomonas aeruginosa [11] = test: Antibacterial activity against Amikacin-resistant Pseudomonas aeruginosa assessed as susceptible isolates at minimum inhibitory concentration of >16 ug/ml by CLSI broth microdilution method
Escherichia coli [12] = test: Antibacterial activity against ESBL-producing Escherichia coli assessed as susceptible isolates at minimum inhibitory concentration of >16 ug/ml by CLSI broth microdilution method
Pseudomonas aeruginosa [13] = test: Antibacterial activity against Amikacin-resistant Pseudomonas aeruginosa assessed as susceptible isolates at minimum inhibitory concentration of 1 ug/ml by CLSI broth microdilution method
Escherichia coli [14] = test: Antibacterial activity against ESBL-producing Escherichia coli assessed as susceptible isolates at minimum inhibitory concentration of 16 ug/ml by CLSI broth microdilution method
Pseudomonas aeruginosa [15] = test: Antibacterial activity against Amikacin-resistant Pseudomonas aeruginosa assessed as susceptible isolates at minimum inhibitory concentration of 4 ug/ml by CLSI broth microdilution method
Pseudomonas aeruginosa [16] = test: Antibacterial activity against tazobactam-resistant Pseudomonas aeruginosa assessed as susceptible isolates at minimum inhibitory concentration of 4 ug/ml by CLSI broth microdilution method
Pseudomonas aeruginosa [17] = test: Antibacterial activity against Amikacin-resistant Pseudomonas aeruginosa assessed as susceptible isolates at minimum inhibitory concentration of 2 ug/ml by CLSI broth microdilution method
Klebsiella aerogenes [18] = test: Antibacterial activity against Enterobacter aerogenes assessed as susceptible isolates at minimum inhibitory concentration of 0.5 ug/ml by CLSI broth microdilution method
Enterobacter cloacae [19] = test: Antibacterial activity against Enterobacter cloacae assessed as susceptible isolates at minimum inhibitory concentration of 8 ug/ml by CLSI broth microdilution method
Proteus mirabilis [20] = test: Antibacterial activity against Proteus mirabilis assessed as susceptible isolates at minimum inhibitory concentration of 0.25 ug/ml by CLSI broth microdilution method
Pseudomonas aeruginosa [21] = test: Antibacterial activity against Levofloxacin-resistant Pseudomonas aeruginosa assessed as susceptible isolates at minimum inhibitory concentration of >16 ug/ml by CLSI broth microdilution method
Pseudomonas aeruginosa [22] = test: Antibacterial activity against MDR3 Pseudomonas aeruginosa assessed as susceptible isolates at minimum inhibitory concentration of 1 ug/ml by CLSI broth microdilution method
Pseudomonas aeruginosa [23] = test: Antibacterial activity against Ciprofloxacin-resistant Pseudomonas aeruginosa assessed as susceptible isolates at minimum inhibitory concentration of 4 ug/ml by CLSI broth microdilution method
Pseudomonas aeruginosa [24] = test: Antibacterial activity against tazobactam-resistant Pseudomonas aeruginosa assessed as susceptible isolates at minimum inhibitory concentration of 2 ug/ml by CLSI broth microdilution method
Enterobacter cloacae [25] = test: Antibacterial activity against Enterobacter cloacae assessed as susceptible isolates at minimum inhibitory concentration of 0.12 ug/ml by CLSI broth microdilution method
Pseudomonas aeruginosa [26] = test: Antibacterial activity against Piperacillin-resistant Pseudomonas aeruginosa assessed as susceptible isolates at minimum inhibitory concentration of 4 ug/ml by CLSI broth microdilution method
Proteus mirabilis [27] = test: Antibacterial activity against Proteus mirabilis assessed as susceptible isolates at minimum inhibitory concentration of 4 ug/ml by CLSI broth microdilution method
Pseudomonas aeruginosa [28] = test: Antibacterial activity against MDR3 Pseudomonas aeruginosa assessed as susceptible isolates at minimum inhibitory concentration of 0.5 ug/ml by CLSI broth microdilution method
Pseudomonas aeruginosa [29] = test: Antibacterial activity against Meropenem-resistant Pseudomonas aeruginosa assessed as susceptible isolates at minimum inhibitory concentration of 4 ug/ml by CLSI broth microdilution method
Pseudomonas aeruginosa [30] = test: Antibacterial activity against Meropenem-resistant Pseudomonas aeruginosa assessed as susceptible isolates at minimum inhibitory concentration of 2 ug/ml by CLSI broth microdilution method
Pseudomonas aeruginosa [31] = test: Antibacterial activity against Gentamicin-resistant Pseudomonas aeruginosa assessed as susceptible isolates at minimum inhibitory concentration of >16 ug/ml by CLSI broth microdilution method
Klebsiella oxytoca [32] = test: Antibacterial activity against Klebsiella oxytoca assessed as susceptible isolates at minimum inhibitory concentration of 16 ug/ml by CLSI broth microdilution method
Klebsiella pneumoniae [33] = test: Antibacterial activity against ESBL-producing Klebsiella pneumoniae assessed as susceptible isolates at minimum inhibitory concentration of 0.5 ug/ml by CLSI broth microdilution method
Pseudomonas aeruginosa [34] = test: Antibacterial activity against Piperacillin-resistant Pseudomonas aeruginosa assessed as susceptible isolates at minimum inhibitory concentration of 2 ug/ml by CLSI broth microdilution method
Klebsiella aerogenes [35] = test: Antibacterial activity against Enterobacter aerogenes assessed as susceptible isolates at minimum inhibitory concentration of 1 ug/ml by CLSI broth microdilution method
Klebsiella pneumoniae [36] = test: Antibacterial activity against ESBL-producing Klebsiella pneumoniae assessed as susceptible isolates at minimum inhibitory concentration of 2 ug/ml by CLSI broth microdilution method
Klebsiella oxytoca [37] = test: Antibacterial activity against Klebsiella oxytoca assessed as susceptible isolates at minimum inhibitory concentration of 0.25 ug/ml by CLSI broth microdilution method
Pseudomonas aeruginosa [38] = test: Antibacterial activity against Ciprofloxacin-resistant Pseudomonas aeruginosa assessed as susceptible isolates at minimum inhibitory concentration of 2 ug/ml by CLSI broth microdilution method
[39] = tested on: Stenotrophomonas maltophilia; test: Antibacterial activity against Stenotrophomonas maltophilia assessed as susceptible isolates at minimum inhibitory concentration of <=0.06 ug/ml by CLSI broth microdilution method

COLISTIN
Activity (Acinetobacter baumannii): 6.5% | Activity (Pseudomonas aeruginosa [1]): 5.3% | Activity (Pseudomonas aeruginosa [2]): 98.2% | Activity (Pseudomonas aeruginosa [3]): 98.9% | Activity (Proteus mirabilis [4]): 0% | Activity (Pseudomonas aeruginosa [5]): 98.2% | Activity (Klebsiella oxytoca [6]): 97.2% | Activity (Enterobacter cloacae [7]): 14% | Activity (Pseudomonas aeruginosa [8]): 97.4% | Activity (Pseudomonas aeruginosa [9]): 98.2% | Activity (Enterobacter cloacae [10]): 88.2% | Activity (Pseudomonas aeruginosa [11]): 100% | Activity (Escherichia coli [12]): 100% | Activity (Pseudomonas aeruginosa [13]): 42.1% | Activity (Escherichia coli [14]): 99.7% | Activity (Pseudomonas aeruginosa [15]): 97.4% | Activity (Pseudomonas aeruginosa [16]): 100% | Activity (Pseudomonas aeruginosa [17]): 97.4% | Activity (Klebsiella aerogenes [18]): 73% | Activity (Enterobacter cloacae [19]): 85.5% | Activity (Proteus mirabilis [20]): 0% | Activity (Pseudomonas aeruginosa [21]): 100% | Activity (Pseudomonas aeruginosa [22]): 36% | Activity (Pseudomonas aeruginosa [23]): 98.6% | Activity (Pseudomonas aeruginosa [24]): 92.9% | Activity (Enterobacter cloacae [25]): 1.6% | Activity (Pseudomonas aeruginosa [26]): 100% | Activity (Proteus mirabilis [27]): 0% | Activity (Pseudomonas aeruginosa [28]): 4% | Activity (Pseudomonas aeruginosa [29]): 100% | Activity (Pseudomonas aeruginosa [30]): 98.2% | Activity (Pseudomonas aeruginosa [31]): 100% | Activity (Klebsiella oxytoca [32]): 98.1% | Activity (Klebsiella pneumoniae [33]): 77.9% | Activity (Pseudomonas aeruginosa [34]): 92.9% | Activity (Klebsiella aerogenes [35]): 97.3% | Activity (Klebsiella pneumoniae [36]): 97.1% | Activity (Klebsiella oxytoca [37]): 18.5% | Activity (Pseudomonas aeruginosa [38]): 92.5% | Activity [39]: 0%
